One data set in a line: in vivo. The settings on record: mouse; for selectivity ratio: footnote (5) formula is a drawing, read-out: Therapeutic range; for LD50: ip, mice, intraperitoneal administration, read-out: Acute toxicity LD 50.
A further data set has as its system NMRI mice. Description: in vivo. Conditions: mouse.
The next data set concerns the target T1, cardiac β1 -receptors (Felis catus, UniProt Q9TST6).
T1 construct: pulse rate of narcotized cats (weighing 2-4 kg); from tissue; host or cells: heart of the living cat (in vivo, hexobarbital narcosis)
In words: β-Sympatholytic action: inhibition of isoproterenol-induced tachycardia in narcotized cats. Type of data set: in vivo. The settings on record: for β1 -Sympatholytic action R.A. (relative activity): Propranolol = 1.00, cats, intravenous; for ED50: cat, cats under hexobarbital narcosis, intravenous administration, read-out: β1 -Sympatholytic action ED 50%: dose which inhibits the isoproterenol-induced tachycardia by 50%; for blocking dose for cardiac β1 -receptors: times lower than that of propranolol: versus comparative substance propranolol. The procedure: The β-sympatholytic action was tested on cats. […] The following methods were employed in the tests:
Isoproterenol (1 μg/kg, administered intravenously) causes increases, averaging 40%, in the pulse rate of narcotized cats (weighing 2-4 kg). β-Sympatholytic agents inhibit such tachycardia. Isoproterenol was administered before, and 10 and 40 minutes after, the intravenous administration of the test substances. Linear relationships exist between the logarithms of the administered doses (mg/kg) of the test substances and the inhibition of isoproterenol-induced tachycardia (%).
^(1) Inhibition of isoproterenolinduced tachycardia. Cats under
hexobarbital narcosis. Intravenous administration.
^(2) Dose (mg/kg), which inhibits the isoproterenolinduced tachycardi
^(3) Relative activity.

The subject of data set [1] is pulse rate of narcotized cats. Description: Increase in pulse rate of narcotized cats by isoproterenol. Type of data set: in vivo. Conditions: 1 μg/kg, intravenously; narcotized cats (2-4 kg); average. How it is done: Isoproterenol (1 μg/kg, administered intravenously) causes increases, averaging 40%, in the pulse rate of narcotized cats (weighing 2-4 kg). β-Sympatholytic agents inhibit such tachycardia. Isoproterenol was administered before, and 10 and 40 minutes after, the intravenous administration of the test substances. Linear relationships exist between the logarithms of the administered doses (mg/kg) of the test substances and the inhibition of isoproterenol-induced tachycardia (%). From these relationships, the doses (ED 50%) which inhibit the isoproterenol-induced tachycardia by 50% are determined.

The structures appear in SMILES notation.

T1 sequence (Q9TST6 whole entry): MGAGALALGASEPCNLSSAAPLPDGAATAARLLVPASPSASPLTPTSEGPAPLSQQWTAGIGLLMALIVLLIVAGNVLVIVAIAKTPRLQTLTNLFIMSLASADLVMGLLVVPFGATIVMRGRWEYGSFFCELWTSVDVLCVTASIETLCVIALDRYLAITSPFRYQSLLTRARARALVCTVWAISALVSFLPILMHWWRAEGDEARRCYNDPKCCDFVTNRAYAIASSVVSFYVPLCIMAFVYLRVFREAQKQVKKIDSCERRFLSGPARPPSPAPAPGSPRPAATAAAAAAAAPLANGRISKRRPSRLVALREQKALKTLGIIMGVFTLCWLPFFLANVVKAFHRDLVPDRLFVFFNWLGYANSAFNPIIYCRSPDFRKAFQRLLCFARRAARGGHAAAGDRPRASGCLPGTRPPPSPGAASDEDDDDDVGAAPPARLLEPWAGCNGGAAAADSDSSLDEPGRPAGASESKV

With `Cc1nnc(C=Cc2ccccc2OCC(O)CNC(C)CCc2ccc(O)cc2)s1` (stereo not shown) [Example 4], in the data set “in vivo”, the selectivity ratio is 1990 and the LD50 amounted to 41.7 mg/kg. Moreover, in the data set on NMRI mice, the “therapeutic range: times greater than for propranolol” value is reported as 2.6 times. On cardiac β1 -receptors, the “β1 -Sympatholytic action R.A. (relative activity)” value came to 6.71, the ED50 amounted to 0.021 mg/kg and the “blocking dose for cardiac β1 -receptors: times lower than that of propranolol” value is 6.7 times.

As to `COc1ccc(CCNCC(O)COc2ccccc2C=Cc2nnc(C)s2)cc1OC` (stereo not shown) [Example 2], in the data set “in vivo”, the selectivity ratio worked out at 3250 and the LD50 was 81.3 mg/kg. Besides, in the data set on NMRI mice, the “therapeutic range: times greater than for propranolol” value was determined as 4.2 times. In addition, on cardiac β1 -receptors, the “β1 -Sympatholytic action R.A. (relative activity)” value is 5.64, the ED50 is 0.025 mg/kg and the “blocking dose for cardiac β1 -receptors: times lower than that of propranolol” value is 5.6 times.

For `CC(C)NCC(O)c1ccc(O)c(O)c1` (stereo not shown) [Isoproterenol], the “increase in the pulse rate” value in data set [1] is about 40%.

Source of the values: patent US4353917A, “Amino derivatives of 2-methyl-5-(2-hydroxystyryl)-1,3,4-thiadiazole, their preparation, and formulations containing these compounds” (BASF Aktiengesellschaft, priority 1979, dated 1982).
